Measured values as given in patent US20260091051A1, “USE OF NMN FOR THE PREVENTION AND/OR TREATMENT OF PAIN, AND CORRESPONDING COMPOSITIONS” (Nuvamid SA, priority 2019, published 2026).
Where two headings read alike, the source gives them in different places.

Experiments:
[1] = system: acute cystitis induced by cyclophosphamide (CYP) in female Sprague-Dawley rats; details: for nociceptive scores (CYP-induced visceral pain) / nociceptive threshold (CYP-induced allodynia): 500 mg/kg p.o., 15 min before CYP 150 mg/kg i.p.; for nociceptive scores (CYP-induced visceral pain): vs carrier; for visceral pain induced by the CYP (conclusion): single oral treatment 500 mg/kg
Method: Animals: Sprague-Dawley female rats, 7 weeks old as of their birth
Acute Cystitis Induced by CYP: The CYP was injected via intraperitoneal injection at 150 mg/kg in a final volume of 5 ml/kg of saline solution.
The rats were placed in individual Plexiglas boxes with a metal wire mesh floor and allowed to adapt to the chamber for a period of at least 30 minutes prior to the commencement of any testing. Eight von Frey filaments with increasing levels of force viz 1, 2, 4, 6, 8, 10, 15, and 26 g were used. Each calibrated filament was applied 3 times to the lower abdominal area, near the bladder.
• Score 0=no response • Score 1=retraction of the abdomen • Score 2=stamping or changing of position • Score 3=wheezing or squealing, or abdominal curvature, or licking of the site stimulated with von Frey filaments
For each rat, the results were expressed as follows: • Nociceptive threshold: first von Frey force level for which the stimulus is perceived as being painful (the score ≥1 is obtained)=>lowered threshold=allodynia • Nociceptive score: % of the maximum response (total=9 for 3 combined applications) for each filament=>Overall response to pain
Experimental Groups (6 Rats Per Group): • Group 1: Carrier (5 ml/kg)+CYP • Group 2: NMN (500 mg/kg)+CYP • Group 3: Compound A (500 mg/kg)+CYP • Group 4: Compound B (500 mg/kg)+CYP

[2] = system: cyclophosphamide-induced cystitis (visceral nociceptive pain) in female Sprague-Dawley rats; test: Visceral pain model of cyclophosphamide-induced cystitis in rats, von Frey filaments (Example 1); type: in vivo, rat; details: for nociceptive threshold (threshold of tolerance to pain, allodynia): CYP-treated rats; for nociceptive threshold (threshold of tolerance to pain, allodynia) / nociceptive score: NMN 500 mg/kg or ibuprofen 300 mg/kg oral
Method: The effectiveness of the use of NMN according to the invention was evaluated in rats in a model of nociceptive pain. More precisely, the model used is a visceral pain model. The administration of cyclophosphamide (CYP) serves as the means to simulate cystitis in rats.
The positive control is ibuprofen, a non-steroidal anti-inflammatory drug frequently prescribed to relieve nociceptive pain. The negative control is the carrier for NMN and ibuprofen, that is to say, distilled water.
For this study, 7-week-old female Sprague-Dawley rats were divided into three groups, each group comprising of 6 rats: • a control group who received 5 ml of distilled water (carrier); • a group treated with NMN at 500 mg/kg; and • a group treated with ibuprofen at 300 mg/kg.
The NMN is in the form of zwitterion.
After 24 hours of adaptation, a test to measure the threshold of pain tolerance of each animal was carried out with von Frey filaments prior to the start of the study. This measurement prior to any exposure to a painful stimulus makes it possible to obtain the baseline pain tolerance threshold level in the animals and serves as a negative control.
Von Frey filaments are used as a device for measuring the sensitivity of the skin to touch. The use of von Frey filaments makes it possible to test for allodynia and hyperalgesia in rodents. Briefly put, each filament corresponds to a given force. The filaments are applied in ascending order of increasing force to the animal's skin. The rodents in effect have a reflex to withdraw when an unexpected contact occurs. The withdrawal in response to a force exerted on the rodent is indicative of the animal's threshold of tolerance to pain. The use of von Frey filaments is commonly implemented for measurement of pain in rodents (Deuis J R, Dvorakova L S and Vetter I (2017) Methods Used to Evaluate Pain Behaviors in Rodents. Front. Mol. Neurosci. 10:284.).
In the present study, eight filaments in ascending order of increasing force, of 1 g, 2 g, 4 g, 6 g, 8 g, 10 g, 15 g, and 26 g, were used and applied three times each to the animal's abdomen, near the bladder. The animal's response was assessed as follows: • score 0: no response • score 1: retraction of the abdomen • score 2: stamping or changing of position of the animal • score 3: twitching, or curving or rounding of the abdomen, or licking of the area stimulated by the von Frey filament.
For each rat, the results are expressed as follows: • nociceptive threshold: first force level at which a response from the animal is observed (response score greater than or equal to 1). This indicates the lowest threshold of tolerance to pain for measuring allodynia; • nociceptive score: percentage of the maximum response for each filament. This indicates the overall pain response.
The animals of each of the groups receive either the carrier, or NMN at 500 mg/kg, or ibuprofen at 300 mg/kg administered via the oral route. After administration of the compounds to be tested (carrier, NMN, or ibuprofen), cyclophosphamide is injected via the intraperitoneal route into each rat. The cyclophosphamide induces strong inflammation in the bladder and simulates a pain induced by a urinary tract infection such as cystitis.
The test with the von Frey filaments is repeated at 2 hr and then subsequently at 4 hr after injection of the cyclophosphamide in order to measure the pain response of the animals.
The results were analysed by a one-way analysis of variance (ie one-way ANOVA) test supplemented by a Dunnett's test or by a two-way ANOVA analysis. With regard to statistical significance, * signifies that p<0.05, ** signifies that p<0.01, and *** signifies that p<0.001, as compared to the group treated with the carrier.

[3] = T=2 h after CYP injection, vs carrier (FIG. 3B)
[4] = T=4 h after CYP injection, vs carrier (FIG. 3C)

Compound	nociceptive scores (CYP-induced visceral pain) ([1]; +2 hr)	nociceptive threshold (CYP-induced allodynia) ([1]; +2 hr, vs carrier (FIG. 6A))	nociceptive scores (CYP-induced visceral pain) ([1]; +4 hr)	nociceptive threshold (CYP-induced allodynia) ([1]; +4 hr, vs carrier (FIG. 6B))	visceral pain induced by the CYP (conclusion) ([1]; +2 hr)	visceral pain induced by the CYP (conclusion) ([1]; +4 hr)	nociceptive threshold (threshold of tolerance to pain, allodynia) ([2]; T0, vs carrier (FIG. 3A))	nociceptive threshold (threshold of tolerance to pain, allodynia) [2, 3]	nociceptive threshold (threshold of tolerance to pain, allodynia) [2, 4]	nociceptive score ([2]; 2 hours after CYP (FIG. 4B))	nociceptive score ([2]; 4 hours after CYP (FIG. 4C))	pain tolerance threshold (nociceptive threshold) after cyclophosphamide ([2]; carrier-treated rats, intraperitoneal cyclophosphamide, 10 g before administration (FIG. 1B))	nociceptive threshold after CYP vs baseline response ([1]; CYP 150 mg/kg i.p., carrier-treated group, 2 hours and 4 hours post injection (FIG. 2A))	nociceptive scores after CYP vs baseline response ([1]; CYP 150 mg/kg i.p., carrier-treated group, 2 hours and 4 hours post injection (FIG. 2B))
NC(=O)c1ccc[n+]([C@H]2O[C@H](COP(=O)([O-])O)[C@@H](O)[C@H]2O)c1 [Compound A, alpha nicotinamide mononucleotide]	decrease in the nociceptive scores	increase in the nociceptive threshold	only achieved the level of statistical significance at +4 h	significant at +4 hr	reduced the visceral pain	only achieving the level of significance at +4 hr								
NC(=O)c1ccc[n+]([C@@H]2O[C@H](COP(=O)([O-])O)[C@@H](O)[C@H]2O)c1 [NMN, nicotinamide mononucleotide]	significant decrease in the nociceptive scores	slight increase in the nociceptive threshold	significant decrease in the nociceptive scores	slight increase in the nociceptive threshold	relieved the visceral pain	relieved the visceral pain	increase the response threshold to nociceptive pain significantly	increase the response threshold to nociceptive pain significantly	increase the response threshold to nociceptive pain significantly	reducing the nociceptive score	reducing the nociceptive score			
O=P1(N(CCCl)CCCl)NCCCO1 (stereo not shown) [cyclophosphamide, reference compound]												3 g	significant decrease in the nociceptive threshold	significant increase in the nociceptive scores
CC(C)Cc1ccc(C(C)C(=O)O)cc1 (stereo not shown) [ibuprofen]							significantly increase the threshold of tolerance to pain	significantly increase the threshold of tolerance to pain	significantly increase the threshold of tolerance to pain	reducing the nociceptive score	reducing the nociceptive score			
di-NMN [Compound B]	no effect was observed	no effect	significant decrease in the nociceptive scores	significant increase in the nociceptive threshold	no beneficial effect	significant anti-nociceptive activity								
